# Test results from ChEMBL document CHEMBL1671811, “Deconstruction of non-nucleoside reverse transcriptase inhibitors of human immunodeficiency virus type 1 for exploration of the optimization landscape of fragments” (J Med Chem, 2011).
# Target: T1, Human immunodeficiency virus type 1 reverse transcriptase (Human immunodeficiency virus 1, UniProt Q72547)
# Test: Binding affinity to HIV1 reverse transcriptase by surface plasmon resonance based biosensor assay
row,Compound,Kd
1,NC(=S)NCCc1ccccc1,700 µM
2,NS(=O)(=O)c1ccc(NC(=O)COc2ccc(Cl)cc2)cc1,30 µM
3,Cc1ccccc1OCC(=O)Nc1ccc(S(N)(=O)=O)cc1,1100 µM
4,S=C(NCCc1ccccc1)Nc1ccccn1,6 µM
5,S=C(NCCc1ccccc1)Nc1ccc(Br)cn1,2 µM

# Further lines, results first:
row,Kd,Compound
1,1700 µM,O=C(CSc1nncn1-c1ccccc1)Nc1ccccc1
2,1600 µM,NS(=O)(=O)c1ccc(NC(=O)CSc2nc[nH]n2)cc1
3,800 µM,CC(=O)c1ccccc1OCC(=O)Nc1ccccc1C
4,800 µM,Cc1ccc(-n2cnnc2SCC(=O)Nc2ccccc2)cc1
5,1300 µM,NS(=O)(=O)c1ccc(NC(=O)CSc2nncn2-c2ccccc2)cc1

# Target: T1, Human immunodeficiency virus type 1 reverse transcriptase
# Test: Inhibition of HIV1 reverse transcriptase
row,Compound,IC50
1,Cc1cc(S(N)(=O)=O)ccc1NC(=O)COc1ccc(Cl)cc1C(=O)c1cc(F)cc(C(F)(F)F)c1,0.0014 µM
